One may read the IC50 as the concentration that gives 50% inhibition. Read a high IC50 as weaker potency.

The assay deals with DM2 (RNA7)-MBNL-1 complex. In kind it is biochemical. Conditions: ligand added to well containing immobilized RNA7, then MBNL-1.

Regarding `C#CCCCC(=O)NC[C@@H]1O[C@@H](O[C@H]2[C@H](O)[C@@H](O[C@@H]3O[C@@H](CO)[C@H](O)[C@@H](N)[C@@H]3O)[C@H](N)C[C@@H]2N)[C@@H](O)[C@H](O)[C@H]1O` [Compound 1, 6′-N-5-hexynoate kanamycin A], the IC50 is 220 µM.
